How the values were obtained:
Format in all cases: cell-based
Hep3B cell line = test: luciferase mRNA delivery in the Hep3B cell line (in vitro LNP screening); conditions: LNPs of bile acid derived lipid, DOPE, cholesterol and DMG-PEG; mRNA-encoding firefly luciferase; Hep3B cell line (FIG. 2)
Protocol: (§1) Lipid nanoparticles (LNPs) with synthesized bile acid derived lipids, DOPE, cholesterol and DMG-PEG were prepared and screened in various cell lines using mRNA-encoding firefly luciferase (FIGS. 2-4).

JAWS2 cell line = test: luciferase mRNA delivery in the JAWS2 cell line (in vitro LNP screening); conditions: LNPs of bile acid derived lipid, DOPE, cholesterol and DMG-PEG; mRNA-encoding firefly luciferase; JAWS2 cell line (FIG. 3)
Protocol: as §1

C2C12 cell line = test: luciferase mRNA delivery in the C2C12 cell line (in vitro LNP screening); conditions: LNPs of bile acid derived lipid, DOPE, cholesterol and DMG-PEG; mRNA-encoding firefly luciferase; C2C12 cell line (FIG. 4)
Protocol: as §1

Structure (SMILES) | mRNA delivery efficiency (Hep3B cell line) | mRNA delivery efficiency (JAWS2 cell line) | mRNA delivery efficiency (C2C12 cell line)
CCCCCCCCCCCCN(CCCCCCCCCCCC)CCCCCCNC(=O)CC[C@@H](C)[C@H]1CC[C@H]2[C@@H]3CC[C@@H]4C[C@H](O)CC[C@]4(C)[C@H]3C[C@H](O)[C@]12C [BAL6] | more effective mRNA delivery efficiency than other LNPs | – | –
CCCCCCCCCCCCN(CCCCCCCCCCCC)CCN(CCCCCCCCCCCC)CCNC(=O)CC[C@@H](C)[C@H]1CC[C@H]2[C@@H]3[C@H](O)C[C@@H]4C[C@H](O)CC[C@]4(C)[C@H]3CC[C@]12C [BAL11] | – | high mRNA delivery efficiency | high mRNA delivery efficiency
CCCCCCCCCCCCN(CCCCCCCCCCCC)CCN(CCCCCCCCCCCC)CCNC(=O)CC[C@@H](C)[C@H]1CC[C@H]2[C@@H]3CC[C@@H]4C[C@H](O)CC[C@]4(C)[C@H]3C[C@H](O)[C@]12C [BAL7] | – | high mRNA delivery efficiency | high mRNA delivery efficiency

From patent US20260199255A1, “LIPID COMPOUNDS AND METHODS OF MAKING AND USE THEREOF” (Ohio State Innovation Foundation, priority 2022, published 2026)
